From article PMC4704819, “Honey Bee Allatostatins Target Galanin/Somatostatin-Like Receptors and Modulate Learning: A Conserved Function?” (PLoS ONE, 2016)
Entries after “also recorded” stand apart in the source; their conditions may differ. Where a SMILES comes first, the peptide text is derived from it. Bridges are numbered along the chain shown (N, C = ends).

System: mock-transfected HEK293 cells
Assay: Intracellular cAMP reporter assay, mock-transfected HEK293 cells (empty vector)
Type: cell-based, human
Conditions: CRE-luciferase, IBMX, ASTCC Fig 5F, ASTA and ASTC data not shown
Experimental: For intracellular cAMP measurements, cells were bathed in trypsin EDTA and collected, then suspended in fresh DMEM. Transfections with pRK5-ApimeAstC-R, pRK5-ApimeAstA-R or empty pRK5 vector were carried out in 15 ml Falcon tubes. Transfection medium for HEK293 cells was prepared using the Lipofectamine LTX kit (Invitrogen) with 2.5 ml Opti-MEM® (Gibco), 12.5 μl Plus™ Reagent and 4 μg of ApimeASTC-R (or ApimeASTA-R, or empty) expression construct, and 2 μg of CRE(6x)-Luc plasmid. The luciferase ORF, downstream of six tandem repeats of a cyclic AMP responsive element (CRE), in front of a minimum collate promoter, was used as a reporter gene (this reporter plasmid has been used by others)
We followed a previousy published protocol: HEK293 cells in Dulbecco's Modified Eagles Medium nutrient mixture F12-Ham (DMEM/F12, Sigma–Aldrich) supplemented with 10% heat-inactivated fetal bovine serum (Gibco), 100 IU/ml penicillin, 100 μg/ml streptomycin (Gibco) were maintained in an incubator at 37°C with constant supply of 5% CO2, until they reached 60–80% confluence. Cells were then bathed in trypsin EDTA (Gibco) until rounded. The flask was then tapped to loosen the cells, which were subsequently washed off with 5 ml DMEM/F12. The cells were gently centrifuged at 800 rpm for 5 minutes and carefully suspended in fresh DMEM, which was divided in two for transfection with receptor constructs or empty vectors. After 5 min at room temperature, 30 μl LTX was added. After an incubation period of 30 min at room temperature, the DNA/LTX mix was added to the cells. The cells were then aliquoted (100 μl per well) into a clear bottom 96-well plate (Greiner bio-one #655090) and incubated overnight (37°C, 5% CO2).
Prior to measuring cAMP, the cell medium was removed by carefully inverting the 96-well plate on filter paper and quickly replaced with 100 μl of DMEM/F12 without phenol red (Invitrogen), but containing 200 μM 3-isobutyl-1-methylxanthine (IBMX, Sigma–Aldrich) to prevent cAMP breakdown, as well as drugs to be tested. In each experiment, some wells were used to measure basal levels of cAMP in the cells (negative control), while others were used to measure cAMP levels in cells exposed to 10 μM forskolin analogue (NKH-477, Sigma Aldrich, positive control). […] All cells were incubated at 37°C and 5% CO2 for 3–4 h to allow transcription of the reporter gene before 100 μl of freshly reconstituted Steadylite Plus™ substrate (PerkinElmer) was added to each well. The 96-well plate was then placed in the dark for 15 min before light emission resulting from luciferase enzymatic activity was recorded. Measurements lasting 0.2 s/well were taken every 55 s for 10 cycles using a FLUOstar Omega microplate reader (BMG Labtech). Results were analyzed by means of the Omega software packages and further processed by Excel and GraphPad Prism softwares. In order to facilitate comparisons across experiments, bioluminescence levels are expressed relative to those in mock-transfected cells (transfected with the vector devoid of the receptor sequence) untreated with NKH-477, which were arbitrarily set at 100.
To test this prediction, we expressed the two receptors separately in HEK293 cells together with the luciferase reporter gene, downstream of the cAMP response element, CRE, but without exogenous G proteins.

Compound: CC(C)[C@@H]1NC(=O)[C@H](C)NC(=O)[C@H](CC(N)=O)NC(=O)[C@H](Cc2ccccc2)NC(=O)[C@H](Cc2ccc(O)cc2)NC(=O)[C@@H](NC(=O)[C@H](CCCNC(=N)N)NC(=O)[C@H](Cc2c[nH]c3ccccc23)NC(=O)[C@H](Cc2ccc(O)cc2)NC(=O)[C@@H](NC(=O)[C@H](CCCNC(=N)N)NC(=O)CNC(=O)[C@H](CCCCN)NC(=O)[C@H](C)NC(=O)[C@H](CCC(N)=O)NC(=O)CN)C(C)C)CSSC[C@@H](C(=O)N[C@@H](Cc2ccccc2)C(=O)O)NC(=O)[C@H]([C@@H](C)O)NC1=O [Apime-ASTCC] (H-GQAKGRVYWRCYFNAVTCF-OH; disulfide 11-18; N-terminus assumed)
- effect on cAMP levels (bioluminescence) in mock-transfected cells, in words: dose-dependent response; also recorded: a similar response to this peptide was apparent also in mock-transfected cells
- effect on cAMP levels (bioluminescence) in mock-transfected cells, in words (listed as ASTCC): this occurred also in mock-transfected cells

Compound: CC(C)[C@@H]1NC(=O)[C@H](C)NC(=O)[C@H](CC(N)=O)NC(=O)[C@H](Cc2ccccc2)NC(=O)[C@H](C)NC(=O)[C@@H](NC(=O)[C@H](CCC(N)=O)NC(=O)[C@H](CCCCN)NC(=O)[C@H](Cc2c[nH]c3ccccc23)NC(=O)[C@H](Cc2ccc(O)cc2)NC(=O)[C@@H](N)CO)CSSC[C@@H](C(=O)N[C@@H](Cc2ccccc2)C(N)=O)NC(=O)[C@H](CO)NC1=O [Apime-ASTC] (H-SYWKQCAFNAVSCF-NH2; disulfide 6-13; N-terminus assumed)
- effect on cAMP levels (bioluminescence) in mock-transfected cells, in words: No effect
- effect on cAMP levels (bioluminescence) in mock-transfected cells, in words (listed as ASTC): failed to increase intracellular cAMP levels
